The values that follow are results of earlier work, collected in patent publication US7829717B2, “(Arylamidoaryl)squaramide compounds” (OSI Pharmaceuticals, Inc., priority 2004, dated 2010).

Structures are written as SMILES. Structures can show the parent of a compound that is named as a salt.

The data set relates to MO7e human leukemia cells.

Regarding `Cc1ccc(NC(=O)c2ccc(CN3CCN(C)CC3)cc2)cc1Nc1nccc(-c2cccnc2)n1` [Gleevec, imatinib mesylate], the “GM-CSF stimulated growth of MO7e human leukemia cells” value (GM-CSF stimulated) is “not affected”. The “Kit ligand-stimulated growth of MO7e human leukemia cells” value (Kit ligand-stimulated) is “inhibited”.
